Our source for the Kd values is ChEMBL document CHEMBL1212888, “NMR spectroscopy and computational analysis of interaction between Serratia marcescens chitinase B and a dipeptide derived from natural-product cyclopentapeptide chitinase inhibitor argifin” (Bioorg Med Chem, 2010).

For the experiment, the target named is T1, Chitinase B (Serratia marcescens, UniProt P11797).
T1 sequence (P11797 whole entry): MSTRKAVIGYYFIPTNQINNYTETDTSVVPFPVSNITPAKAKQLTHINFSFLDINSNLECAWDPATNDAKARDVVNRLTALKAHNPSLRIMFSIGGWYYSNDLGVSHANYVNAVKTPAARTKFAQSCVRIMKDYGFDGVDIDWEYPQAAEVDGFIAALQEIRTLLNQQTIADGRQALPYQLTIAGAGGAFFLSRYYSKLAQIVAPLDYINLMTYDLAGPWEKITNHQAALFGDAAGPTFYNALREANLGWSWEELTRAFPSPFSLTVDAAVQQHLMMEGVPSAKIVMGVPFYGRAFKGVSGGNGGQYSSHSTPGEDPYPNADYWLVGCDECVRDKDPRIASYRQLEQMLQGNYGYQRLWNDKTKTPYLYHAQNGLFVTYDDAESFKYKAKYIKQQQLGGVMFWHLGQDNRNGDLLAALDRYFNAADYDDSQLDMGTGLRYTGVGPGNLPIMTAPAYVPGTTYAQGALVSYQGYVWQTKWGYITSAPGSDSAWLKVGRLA
Kind of experiment: Inhibition of Serratia marcescens chitinase B.

Structures are written as SMILES.

One may read the Kd as the constant that tells how readily two partners part at equilibrium. With `CNC(=O)NC(=N)NCCC[C@@H]1NC(=O)[C@@H](C)NC(=O)C[C@@H](C(=O)O)NC(=O)C[C@@H](C(=O)O)NC(=O)[C@H](Cc2ccccc2)N(C)C1=O` [ARGIFIN], the affinity, expressed as Kd, was 33 µM.
